We go through 34 compounds from a melting point compilation (Tetko et al.; mined from patent text by program, amines drawn as free bases though some values may be those of a salt).

By melting point is commonly meant the temperature of the solid-liquid transition. `COC(=O)CCCC#Cc1cc(Cl)ccc1NS(=O)(=O)c1ccc2nc(C)sc2c1`: the melting point fell in the range of 103 to 106 °C.

Compound `CCSC(F)(F)C(O)(Cn1cncn1)c1ccc(F)cc1F` (centres undefined) gave a melting point of 109 to 110 °C.

Compound `CC(=O)Nc1ncnc2c1ncn2[C@@H]1C[C@H](OC(C)=O)[C@@H](O)[C@H]1O` (racemic) showed a melting point of 193 to 195 °C.

`COC(=O)c1cc2c3c(cc(OCc4ccccc4)c2[nH]1)N(C(=O)OC(C)(C)C)C[C@H]3COC(C)=O` came in with a melting point of 128 to 130 °C.

Compound `COc1ccc(CN2CCC(c3cn(CCc4ccsc4)c4cc(F)ccc34)CC2)cc1C(=O)O` yielded a melting point of 228 to 229 °C.

With `Cc1ccc2nc3[nH]c(=O)[nH]c3cc2c1Cl`, the melting point was greater than 360 °C.

`CCNc1nc(Cc2cc(OC)c(OC)c(OC)c2)nc2sc(C#N)c(C)c12` returned a melting point of 164 to 165 °C.

For `Cn1c([N+](=O)[O-])cnc1-c1nnc2ccc(N=CN3CCC(O)CC3)nn12`, the melting point is 188 to 190 °C.

As for `CCCn1nc(-c2ccc(Cl)c(Cl)c2)c(-n2ccnc2)c1SC`, the melting point fell in the range of 91 to 93 °C.

With `CCCOc1cccc2cc(-c3ccc4c(c3)C=C(C(=O)Nc3ccc(CN(C)C5CCOCC5)cc3)CCS4(=O)=O)oc12`, the melting point was in the range of 246 to 248 °C.

In the case of `COc1ccc2c(c1)c(CC(=O)OCC(=O)O)c(C)n2C(=O)c1ccccc1C(F)(F)F`, the melting point was 121 to 122 °C.

`COc1cc(OC)nc(Oc2cc([N+](=O)[O-])ccc2C(=O)O)n1` registered a melting point of 93 to 96 °C.

`Cc1cc(CNC(=O)c2nc3n(c(=O)c2OCc2ccccc2)CCN3c2ccccc2)ccc1F` came in with a melting point of 147 °C.

`CSC1(Cl)C(=O)Nc2ccc(C(F)(F)F)cc21` (centres undefined) showed a melting point of 191 to 193 °C.

Compound `NS(=O)(=O)c1cc2ncc(O)cc2s1` gave a melting point of 248 to 250 °C.

In turn, `CCCCC1c2ccccc2-c2cc(Br)ccc2N1S(=O)(=O)c1ccc(O)cc1` (centres undefined) gave a melting point of 178 to 180 °C.

In turn, `CC(C)=CCS(=O)(=O)c1ccc(C)cc1` gave a melting point of 71 to 72 °C.

For the compound `COc1ccc(-c2cc3c4n(ccc-3n2)CC(C)=N4)cc1`, the melting point came to 168 °C.

As to `CCN(Cc1ccc2nc(C)[nH]c(=O)c2c1)c1ccc(C(=O)NCc2nccn2Cc2ccccc2)cc1`, the melting point was 217 to 221 °C.

Take `C(=Nc1ccccn1)N(c1ccccc1)c1ccccc1`: the melting point was in the range of 92 to 94 °C.

Compound `Nc1ccc2c(c1)OC1(CC1)C2=O` had a melting point of 188 to 189 °C.

Compound `CCNC(=NC(=Nc1ccccc1)N1CCOCC1)C(C)C` displayed a melting point of 155 to 158 °C.

Consider `O=C(O)c1ccccc1-c1cc(-c2ccccc2)[nH]n1`, for which the melting point lay in the range of 204 to 206 °C.

`CCCn1nc2c(N)nc3ccccc3c2c1CCNC(=O)OCC`: the melting point was 143 to 144 °C.

`CCCS(=O)(=O)c1ncc(C(F)(F)F)cc1Cl` gave a melting point of 41 to 42 °C.

Take `COC(=S)Cc1ccc(C(=O)CN2CCN(c3ccncc3)CC2)cc1`: the melting point lay in the range of 109 to 110 °C.

Turning to `CCCCCCCCCCOc1cc(OCCCCCCCCCC)cc(N(CC(=O)O)CC(=O)O)c1`, the melting point fell in the range of 110 to 114 °C.

Compound `O=C(C=Cc1ccc[nH]1)c1ccccc1Br` had a melting point of 76 to 78 °C.

Compound `CN(C)S(=O)(=O)c1cccc(-c2cc(-c3nc(-c4ccc(C(F)(F)F)cc4)cc(C(F)(F)F)n3)ccn2)c1` yielded a melting point of 225 °C.

`O=C(CNC1CCCCC1)Nc1ccc(C(=O)N2CCCCc3ccccc32)cc1` showed a melting point of 139 to 142 °C.

The compound `CCCc1c(OCCCOc2ccc(C(=O)OCC)cc2)ccc(C(C)=O)c1O` returned a melting point of 86 to 87 °C.

Consider `O=C(O)Cc1cccc(C(=O)c2ccccc2)c1`, for which the melting point lay within 101 to 103 °C.

Regarding `CC(=C1SC(=O)NC1=O)c1ccc(OCCOc2c(-c3ccccc3F)n(C)c3ccccc3c2=O)c(Cl)c1`, the melting point was in the range of 220 to 222 °C.

The compound `COc1ccc(NC(=O)NCc2ccc(-n3c(-c4cccnc4N)nc4cccnc43)cc2)cc1` gave a melting point of 224 to 226 °C.
